In US20030212074A1, “Phosphate transport inhibitors” (priority 2000, published 2003):

These molecules were tested on Sodium-dependent phosphate transport (assay: Phosphate uptake assay in human proximal tubule cells (32P-labelled inorganic phosphate uptake)). Conditions: whole cell assay, 32P uptake.
Format: cell-based
Experimental: Sodium-dependent phosphate transport inhibition is determined by the ability of the test compound to inhibit the uptake of radio-labeled inorganic phosphate by proximal tubule cells. Appropriate cells from human, rabbit, or rat may be used.
Cell Preparation and Phosphate Uptake Assay.
Rabbit proximal tubule cells were isolated and cultured according to the procedure of Sakhrani, L. M. et al., Am. J. Physiol. 246:F757-F764, (1984) whose disclosure is incorporated herein by reference in its entirety. Human proximal tubule cells were purchased from Clonetics (San Diego, Calif.) and grown according to the suppliers' instructions. On the day of the experiment, cells were harvested from culture plates with 0.5 mM EDTA in phosphate buffered saline. The cells were washed twice in uptake buffer (see below) and equilibrated at 37 C in the same buffer for 30 minutes. Aliquots of cells (100 ul, 0.5 to 1 million cells) were distributed into glass test tubes. Fifty ul of drug solution or buffer were added followed by 50 ul of uptake buffer containing 100 uM [^32P]-K2HPO4 (0.5 to 1 uCi/tube).After varying periods of time (usually 4 minutes) at 37 C, uptakes were stopped with 4 ml of cold stop solution (see below) and the cells were washed 3 times in this solution by centrifugation. The pelleted cells were dissolved in 0.5 ml 1 N NaOH and ^32P was counted in a liquid scintillation counter. Phosphate uptake is expressed as pmol phosphate/mg cell protein.
In the above noted whole cell assay system for rabbit and human proximal tubule cells the cells are harvested by filtration and ^32P uptake is measured. It is also possible to use ^33P rather than ^32P.

SMILES | IC50 [µM]
O=C(Nc1ccc(Br)cc1)c1cc(Br)ccc1NS(=O)(=O)c1ccc(Cl)s1 [5-bromo-N-(4-bromophenyl)-2-(5-chloro-2-thienylsulfonamido)benzamide] | 12
O=C(Nc1ccc(Br)cc1)c1cc(Br)ccc1NS(=O)(=O)CCCCl [5-bromo-N-(4-bromophenyl)-2-(3-chloropropylsulfonamido)benzamide] | 14
O=C(Nc1ccc(Br)cc1)c1cc(Br)ccc1NS(=O)(=O)c1ccccc1F [5-bromo-N-(4-bromophenyl)-2-(2-fluorophenylsulfonamido)benzamide] | 15
